Measurements taken from the supplement of paper PMC10307832.

Assays:
Test in all cases: relative viability (nuclei count vs DMSO), 5 days (fraction); higher = more cells survive
[1] = compound: COc1cc2nc(N3CCCN(C)CC3)nc(NC3CCN(Cc4ccccc4)CC3)c2cc1OC + N=C(N)NC(=N)NCCc1ccccc1 [Phenformin] (partner 250 µM)
Method in brief: (§1)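 A single step with final 0.05% Triton X-100, 1% formaldehyde and 1 ug/ml Hoechst fixed the cells and stained nuclei 5 days after treatment. Lung cancer cell lines in 1536-well plates had been treated by pin tool the day after seeding with one drug alone or a fixed anchor-drug dose plus five library-drug doses (not always all listed) in √10 steps, and nuclei were counted on 4× images. Relative viability is the ratio of nuclei in treated wells to nuclei in vehicle wells, taken as the median of duplicate plates.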

[2] = compound: COc1cc2nc(N3CCCN(C)CC3)nc(NC3CCN(Cc4ccccc4)CC3)c2cc1OC + O=C(CCCCCCC(=O)Nc1ccccc1)NO [Vorinostat] (partner 1 µM)
Method in brief: as §1

AZD6482 + Lapatinib = compound: Cc1cc([C@@H](C)Nc2ccccc2C(=O)O)c2nc(N3CCOCC3)cc(=O)n2c1 [AZD6482] + CS(=O)(=O)CCNCc1ccc(-c2ccc3ncnc(Nc4ccc(OCc5cccc(F)c5)c(Cl)c4)c3c2)o1 [Lapatinib] (partner 2 µM)
Method in brief: as §1

AZD6482 + Vorinostat = compound: Cc1cc([C@@H](C)Nc2ccccc2C(=O)O)c2nc(N3CCOCC3)cc(=O)n2c1 [AZD6482] + O=C(CCCCCCC(=O)Nc1ccccc1)NO [Vorinostat] (partner 1 µM)
Method in brief: as §1

In the case of NCI-H23, the relative viability ([1]; first compound 0.2 µM) is reported as 0.743, the relative viability ([1]; first compound 0.6325 µM) is reported as 0.717 and the relative viability ([1]; first compound 2 µM) is reported as 0.936. For the same cell line, the relative viability ([1]; first compound 6.325 µM) was 0.794, the relative viability ([2]; first compound 0.2 µM) was 0.571 and the relative viability ([2]; first compound 0.6325 µM) was 0.597. It also gave a relative viability ([2]; first compound 2 µM) of 0.576, a relative viability ([2]; first compound 6.325 µM) of 0.471 and a relative viability (AZD6482 + Lapatinib; first compound 0.08 µM) of 1.03. The relative viability (AZD6482 + Lapatinib; first compound 0.253 µM) was 0.848, the relative viability (AZD6482 + Lapatinib; first compound 0.8 µM) was 1.32 and the relative viability (AZD6482 + Lapatinib; first compound 2.53 µM) was 0.644. The relative viability (AZD6482 + Lapatinib; first compound 8 µM) was 0.855, the relative viability (AZD6482 + Vorinostat; first compound 0.08 µM) was 0.542 and the relative viability (AZD6482 + Vorinostat; first compound 0.253 µM) was 0.516. The relative viability (AZD6482 + Vorinostat; first compound 0.8 µM) was 0.617, the relative viability (AZD6482 + Vorinostat; first compound 2.53 µM) was 0.374 and the relative viability (AZD6482 + Vorinostat; first compound 8 µM) was 0.407.

NCI-H1395 was tested, and the relative viability ([1]; first compound 0.2 µM) was 0.461, the relative viability ([1]; first compound 0.6325 µM) was 0.451 and the relative viability ([1]; first compound 2 µM) was 0.433. It also gave a relative viability ([1]; first compound 6.325 µM) of 0.397, a relative viability ([2]; first compound 0.2 µM) of 0.617 and a relative viability ([2]; first compound 0.6325 µM) of 1.24. For the same cell line, the relative viability ([2]; first compound 2 µM) was 0.896, the relative viability ([2]; first compound 6.325 µM) was 0.491 and the relative viability (AZD6482 + Lapatinib; first compound 0.08 µM) was 0.787. For the same cell line, the relative viability (AZD6482 + Lapatinib; first compound 0.253 µM) was 0.741, the relative viability (AZD6482 + Lapatinib; first compound 0.8 µM) was 0.836 and the relative viability (AZD6482 + Lapatinib; first compound 2.53 µM) was 0.511. It also gave a relative viability (AZD6482 + Lapatinib; first compound 8 µM) of 0.562, a relative viability (AZD6482 + Vorinostat; first compound 0.08 µM) of 0.584 and a relative viability (AZD6482 + Vorinostat; first compound 0.253 µM) of 0.402. It also gave a relative viability (AZD6482 + Vorinostat; first compound 0.8 µM) of 0.559, a relative viability (AZD6482 + Vorinostat; first compound 2.53 µM) of 0.385 and a relative viability (AZD6482 + Vorinostat; first compound 8 µM) of 0.47.

For 201T, the relative viability ([1]; first compound 0.2 µM) was 0.464, the relative viability ([1]; first compound 0.6325 µM) was 0.414 and the relative viability ([1]; first compound 2 µM) was 0.462. It also gave a relative viability ([1]; first compound 6.325 µM) of 0.442, a relative viability ([2]; first compound 0.2 µM) of 0.968 and a relative viability ([2]; first compound 0.6325 µM) of 0.983. It also gave a relative viability ([2]; first compound 2 µM) of 0.952, a relative viability ([2]; first compound 6.325 µM) of 0.939 and a relative viability (AZD6482 + Lapatinib; first compound 0.08 µM) of 1.02. For the same cell line, the relative viability (AZD6482 + Lapatinib; first compound 0.253 µM) was 1.04, the relative viability (AZD6482 + Lapatinib; first compound 0.8 µM) was 1.17 and the relative viability (AZD6482 + Lapatinib; first compound 2.53 µM) was 0.843. The relative viability (AZD6482 + Lapatinib; first compound 8 µM) was 0.993, the relative viability (AZD6482 + Vorinostat; first compound 0.08 µM) was 0.965 and the relative viability (AZD6482 + Vorinostat; first compound 0.253 µM) was 0.938. It also gave a relative viability (AZD6482 + Vorinostat; first compound 0.8 µM) of 0.983, a relative viability (AZD6482 + Vorinostat; first compound 2.53 µM) of 0.764 and a relative viability (AZD6482 + Vorinostat; first compound 8 µM) of 0.862.

NCI-H2170 was tested, and the relative viability ([1]; first compound 0.2 µM) was 0.402, the relative viability ([1]; first compound 0.6325 µM) was 0.407 and the relative viability ([1]; first compound 2 µM) was 0.425. For the same cell line, the relative viability ([1]; first compound 6.325 µM) was 0.387, the relative viability ([2]; first compound 0.2 µM) was 0.858 and the relative viability ([2]; first compound 0.6325 µM) was 0.765. For the same cell line, the relative viability ([2]; first compound 2 µM) was 0.86, the relative viability ([2]; first compound 6.325 µM) was 0.755 and the relative viability (AZD6482 + Lapatinib; first compound 0.08 µM) was 0.245. It also gave a relative viability (AZD6482 + Lapatinib; first compound 0.253 µM) of 0.249, a relative viability (AZD6482 + Lapatinib; first compound 0.8 µM) of 0.303 and a relative viability (AZD6482 + Lapatinib; first compound 2.53 µM) of 0.248. For the same cell line, the relative viability (AZD6482 + Lapatinib; first compound 8 µM) was 0.295, the relative viability (AZD6482 + Vorinostat; first compound 0.08 µM) was 0.742 and the relative viability (AZD6482 + Vorinostat; first compound 0.253 µM) was 0.695. For the same cell line, the relative viability (AZD6482 + Vorinostat; first compound 0.8 µM) was 0.767, the relative viability (AZD6482 + Vorinostat; first compound 2.53 µM) was 0.677 and the relative viability (AZD6482 + Vorinostat; first compound 8 µM) was 0.578.
